What is called Cmax is the highest concentration seen after dosing. For orientation: half-life means the time in which the quantity being followed falls by half. A low value points to fast loss. What is called Tmax is the time from dosing to the highest level.

The text below walks through data of article PMC12057336 (Antimicrobial Agents and Chemotherapy, 2025).

Read-outs that look alike come from different tables or passages of the source.

One data set concerns primary rat hepatocytes. Particulars: for substrate stability in control incubation: absence of hepatocytes; for substrate stability in control incubation / remaining percentage: 1 µM; for remaining percentage: freshly isolated normal rat hepatocytes; for remaining percentage / decrease of formation compared to normal rat hepatocytes: 6 h; for decrease of formation compared to normal rat hepatocytes: linezolid 1 µM. Here is the method:
Primary rat hepatocytes were isolated from normal, CCl4-induced, and 5/6 Nx rats according to the previously described two-step collagenase method ([36]). Rats were anesthetized with urethane (1 g/kg), their abdomens were opened, and their portal veins were cannulated with a needle. The liver was perfused with HBSS solution (without calcium and magnesium ions) containing 5 mM EGTA at a rate of 50–60 mL/min using a peristaltic pump until the blood in the liver was removed. HBSS solution containing 7.5 mg/50 mL collagenase was perfused for 20 min until the liver was completely softened and the surface collapsed. The liver was gently removed and placed in a precooled HBSS solution containing 10% FBS. Hepatocytes were eluted and centrifuged at 500 × g for 5 min, and the supernatant was removed to obtain primary rat hepatocytes. Isolated primary rat hepatocytes were washed three times and suspended in DMEM containing 10% FBS, 100 µg/mL streptomycin, 100 U/ml penicillin, and 10 µg/mL insulin at pH 7.65.
Freshly isolated rat hepatocytes at a density of 1.0 × 10^6 cells/well were placed in plates pre-coated with collagen and incubated for 18–24 h in a humidified incubator at 37°C and 5% CO2. […] Control incubations were performed in the absence of hepatocytes to test the substrate stability. Three replicate samples (1 mL each) were collected after 1, 2, 4, and 6 h of incubation. Then, 800 µL of methanol was immediately added, and the samples were transferred to a freezer (−20°C) to terminate metabolism. Hepatocytes were quickly washed three times with ice-cold HBSS and then lysed by the addition of 300 µL of purified water.
An AB Sciex 4000 Mass Spectrometer (AB Sciex, Framingham, MA, USA) and Shimadzu LC 20 series (Shimadzu, Kyoto, Japan) were used for HPLC-MS/MS. […] The Phenomenex Synergi Hydro-RP column (30 mm × 2 mm, 4 µm, Phenomenex Inc., Torrance, CA, USA) was used for chromatographic separation. The mobile phase consisted of 0.1% (vol/vol) formic acid in water (A) and 0.1% (vol/vol) formic acid in acetonitrile (B). The gradient conditions were as follows: 0–1.4 min, 15%–80% B; 1.4–1.8 min, 80% B; 1.8–1.81 min, return to 15% B; 1.81–2.1 min, equilibrium. The flow rate was 450 µL/min. Data acquisition and analysis were performed using the Analyst software (version 1.4.1, AB Sciex).
(§1) Atotal is the total cumulative amount excreted in urine over 24 h. D is the administered dose. The scale factor is 4,680 (10^6 cells/kg). All data are expressed as mean ± standard deviation (SD). Statistical analysis was performed using Student’s two-tailed unpaired t-test or nonparametric Mann-Whitney U test with SPSS Statistics 19.0 (SPSS Inc., Chicago, IL, USA). Statistical significance was set at P < 0.05.

Data set [1] in a line: Serum biochemical parameters of CCl4-induced rats. Type of data set: in vivo, rat.
A further data set is described as follows: in vivo. Particulars: rat, in vivo; for half-life: t1/2.
Description: The control group rats were intraperitoneally injected with equal volumes of soybean oil. […] The upper and lower poles of the left kidney were removed under urethane anesthesia (1 g/kg; administered by i.p. injection). One week later, the right kidney was completely excised. Rats in the control group underwent a sham operation ([35]). Serum creatinine (CREA), blood urea nitrogen (BUN), aspartate aminotransferase (AST), alanine aminotransferase (ALT), alkaline phosphatase (ALP), lactate dehydrogenase (LDH), and total bilirubin (TBIL) levels were measured using commercial kits (Shanghai Enzyme-linked Biotechnology Co., Ltd., Shanghai, China) according to the protocols described by the manufacturer before pharmacokinetic experiments.
The rats were first divided into two groups: i.v. or i.g. administration groups. These two groups were further divided into the following four subgroups (n = 5): soybean oil-treated control rats, CCl4-induced rats, sham-operated control rats, and 5/6 Nx rats. […] Blood samples (200 µL) were collected from the retro-orbital venous plexus into heparinized tubes at 0 (pre-dose), 0.25, 0.5, 0.75, 1, 2, 3, 4, 6, 8, 12, and 24 h after i.g. administration, and at 0 (pre-dose), 0.083, 0.25, 0.5, 0.75, 1, 2, 3, 4, 6, 8, 12, and 24 h after i.v. administration. Plasma samples were separated by centrifugation at 6,000 × g for 5 min at 4°C and stored at −80°C until further analysis using HPLC.
Chromatographic separation was performed using the SinoPak BEH T-C18 column (4.6 mm × 150 mm, 5 µm, Hi-tech Zone, China) at 35°C. A photodiode array detector was set at a wavelength of 254 nm. The mobile phase consisted of 0.1% (vol/vol) formic acid in water (A) and acetonitrile (B). The gradient conditions were as follows: 0–4.0 min, 14%–86% B; 4.0–5.0 min, […]; 5.0–5.7 min, return to 14% B; 5.7–8.0 min, equilibrium. The flow rate was 1.0 mL/min.
Plasma and tissue homogenate samples (100 µL) were mixed with 10 µL of IS (50.0 mg/L) and 200 µL of acetonitrile, followed by vortex-mixing for 3 min. The mixture was centrifuged at 15,000 × g for 15 min at 4°C. Then, 5 µL of the supernatant was analyzed. The urine samples were diluted and directly injected for measurement.
The area under the plasma concentration-time curve from 0 to infinity (AUC0-∞), time to maximum concentration (tmax), Cmax, t1/2, CL, and Vd were calculated by non-compartmental model analysis using the Phoenix 8.1.0 WinNonlin software (Pharsight Corp, Princeton, NJ, USA). The renal clearance (CLr), in vitro hepatic clearance (CLint, in vitro), and bioavailability (F) were calculated using the following equations:
F (%) = Div×AUC0−∞, ig/Dig×AUC0−∞, iv
as §1

The nature of data set [2]: Tissue distribution after i.g. or i.v. linezolid in control, CCl4-induced and 5/6 Nx rats. Type of data set: in vivo, rat. Particulars: after i.g. or i.v. linezolid; LLOQ 0.25 mg/L. The text has this:
These two groups were further divided into the following three subgroups (n = 4): control rats, CCl4-induced rats, and 5/6 Nx rats. […] The rats were euthanized immediately after blood sampling. The brain, heart, lungs, liver, kidneys, and small intestine were collected. The collected tissues were washed and homogenized in normal saline (three-fold volume of each sample weight) using a multi-sample tissue grinder (Tissuelyser-48L; Shanghai Jingxin Industrial Development Co. Ltd., Shanghai, China). After centrifugation of the homogenate samples at 12,000 × g for 10 min at 4°C, the supernatants were stored at −80°C.
The flow rate was 1.0 mL/min.
Then, 5 µL of the supernatant was analyzed.

For another data set, the system named is megakaryocytic cells. Particulars: cited from earlier work.
For data set [3] the following is noted: cited from earlier work.

Consider `O=c1ccc2ccc(O)cc2o1` [7-hydroxycoumarin], for which, in the data set on primary rat hepatocytes, the “substrate stability in control incubation” value is “No reductions” and the remaining percentage is recorded as < 5%.

For the compound `ClC(Cl)(Cl)Cl` [CCl4, Carbon tetrachloride], in data set [1], the “serum ALT relative to soybean oil-treated control rats” value was 6.92 fold, the “serum AST relative to soybean oil-treated control rats” value worked out at 10.7 fold, the “serum LDH relative to soybean oil-treated control rats” value turned out to be 1.86 fold and the “serum TBIL relative to soybean oil-treated control rats” value amounted to 8.40 fold. In data set [1] (2.5 mL/kg i.p., 24 h, serum), this compound registered an ALP of 257.1 ± 94.3 U/L, an ALT of 418.8 ± 129.4 U/L, an AST of 2399.5 ± 203.2 U/L and a CREA of 17.1 ± 7.3 µmol/L. In data set [1] (2.5 mL/kg i.p., 24 h, serum), this compound showed an LDH of 2477.6 ± 220.8 U/L and a TBTL of 4.2 ± 2.0 µmol/L.

For the compound `CC(=O)NC[C@H]1CN(c2ccc(N(CCO)CC(=O)O)c(F)c2)C(=O)O1` [PNU-142586], in the data set “in vivo” (Sprague-Dawley), the “decrease of CLr in comparison to sham-operated control rats” value is given as 33.3% and the “share of the total plasma concentrations” value is 5.6–8.5%. Also, in “in vivo” (Sprague-Dawley, iv), the “AUC0-∞ relative to sham-operated control rats” value was found to be 2.82 fold, the “decrease of AUC0-∞ compared to soybean oil-treated control rats” value was found to be 13.6%, the “decrease of CLr in comparison to sham-operated control rats” value amounted to 33.3% and the “t1/2 relative to control rats” value was found to be 1.41 fold. Further, in “in vivo” (Sprague-Dawley, iv), the “t1/2 relative to sham-operated control rats” value is reported as 1.53 fold. For the same compound, in “in vivo” (Sprague-Dawley, iv, 25 mg/kg), the Cmax was 1690 ± 230 ng/mL and the half-life is 2.11 ± 0.42 h. In addition, in the data set “in vivo” (Sprague-Dawley, po), the “AUC0-∞ relative to sham-operated control rats” value is on record as 1.88 fold, the “decrease of AUC0-∞ compared to soybean oil-treated control rats” value amounted to 10.4%, the “t1/2 relative to control rats” value came out at 1.32 fold and the “t1/2 relative to sham-operated control rats” value stood at 1.15 fold. In the data set “in vivo” (Sprague-Dawley, po, 63 mg/kg), this compound showed a Cmax of 1860 ± 210 ng/mL and a half-life of 4.31 ± 0.52 h. Besides, the Tmax in “in vivo” (Sprague-Dawley, po, 63 mg/kg, tmax) was found to be 2.8 ± 0.45 h. For the same compound, the “cumulative urinary excretion rate” value in the data set “in vivo” was determined as 3.5%. Besides, in data set [2], the “detection in brain, heart, lung, liver, kidney, or small intestine tissues” value is “No PNU-142586 was detected”. For the same compound, the “decrease of formation compared to normal rat hepatocytes” value with primary rat hepatocytes (5/6 Nx rat hepatocytes) is given as 28.9%. In the data set on primary rat hepatocytes (hepatocytes from CCl4-induced rats), the “decrease of formation compared to normal rat hepatocytes” value is recorded as 95.6%. Also, the “cytotoxic effects on platelet precursor cell lines” value with megakaryocytic cells is on record as “cytotoxic effects”. For the same compound, the “accumulation in patients with renal failure” value in data set [3] is recorded as “accumulated”. Besides, in data set [3] (humans), the “share of dosed linezolid in the urine” value is “more than 30%”.

`C[C@]12CC[C@H]3[C@@H](CCC4=CC(=O)CC[C@@]43C)[C@@H]1CC[C@@H]2O` [testosterone]: in the data set with primary rat hepatocytes, the “substrate stability in control incubation” value is “No reductions” and the remaining percentage result was “less than 2%”.
